{"source": "paper PMC7122770", "about": "“Potential endocrine disrupting properties of toys for babies and infants” (PLoS ONE, 2020)", "key": {"[1]": {"conditions": "cited from earlier work"}, "[2]": {"target": "T1, human estrogen receptor (Estrogen Receptor α) (Homo sapiens, UniProt P03372)", "T1 sequence (P03372 1-595)": "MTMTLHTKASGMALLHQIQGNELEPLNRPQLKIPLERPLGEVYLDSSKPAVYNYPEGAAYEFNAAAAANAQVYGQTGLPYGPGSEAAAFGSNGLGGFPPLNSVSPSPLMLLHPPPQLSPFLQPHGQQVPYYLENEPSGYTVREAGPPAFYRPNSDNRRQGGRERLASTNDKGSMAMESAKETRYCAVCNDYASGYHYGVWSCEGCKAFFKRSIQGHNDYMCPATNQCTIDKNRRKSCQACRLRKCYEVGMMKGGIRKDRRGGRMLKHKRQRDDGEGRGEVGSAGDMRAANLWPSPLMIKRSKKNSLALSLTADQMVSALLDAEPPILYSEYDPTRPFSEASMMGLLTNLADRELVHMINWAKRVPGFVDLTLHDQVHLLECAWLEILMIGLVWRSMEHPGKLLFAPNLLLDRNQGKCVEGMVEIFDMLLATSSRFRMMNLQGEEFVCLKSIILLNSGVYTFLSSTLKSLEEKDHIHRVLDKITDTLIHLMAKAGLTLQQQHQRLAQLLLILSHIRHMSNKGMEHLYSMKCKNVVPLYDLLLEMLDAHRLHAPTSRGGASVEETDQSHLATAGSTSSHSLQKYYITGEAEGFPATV", "experiment": "Analysis of detected pure substances in ER-CALUX", "format": "cell-based", "conditions": "for % E2 max: mean of triplicates"}, "[3]": {"tested_on": "U2-OS osteosarcoma cell line", "experiment": "Cytotoxic effects / cell viability in the CALUX cells", "format": "cell-based, human", "conditions": "two highest concentrations in ER-CALUX"}, "[4]": {"experiment": "Toxicological reference values (TDI, ADI, reference dose)", "set-up": "species or system human", "source_text": "Risks were estimated by comparing the daily exposure (DE) to toxicological reference values (TRV) when available."}, "[5]": {"conditions": "cited from earlier work", "remark": "listed apart in the source"}, "[6]": {"conditions": "2,50E-04 mol/l in bioassay medium"}, "[7]": {"conditions": "2,50E-06 mol/l in bioassay medium"}, "[8]": {"conditions": "5,00E-04 mol/l in bioassay medium"}, "[9]": {"conditions": "5,00E-05 mol/l in bioassay medium"}, "[10]": {"conditions": "5,00E-06 mol/l in bioassay medium"}, "[11]": {"conditions": "pure substance in ER-CALUX, read-out: EC50"}}, "note": "Structures can show the parent of a compound that is named as a salt. Where two headings read alike, the source gives them in different places.", "data": [{"smiles": "CCCCOC(=O)CC(CC(=O)OCCCC)(OC(C)=O)C(=O)OCCCC", "note": "[Acetyl tributyl citrate (ATBC), Acetyl tributyl citrate]", "values": [{"measurement": "estrogenic or androgenic activity", "setting": "[1]; based on published data ref 2", "result": "does not seem to show estrogenic or androgenic activity"}]}, {"smiles": "CCCCOC(=O)CC(O)(CC(=O)OCCCC)C(=O)OCCCC", "note": "[Tributyl citrate (TBC), Tributyl citrate]", "values": [{"measurement": "% E2 max", "setting": "[2]; [6]", "result": 8, "unit": "%"}, {"measurement": "% E2 max", "setting": "[2]; [7]", "result": 4, "unit": "%"}, {"measurement": "% E2 max", "setting": "[2]; [8]", "result": 3, "unit": "%"}, {"measurement": "% E2 max", "setting": "[2]; [9]", "result": 34, "unit": "%"}, {"measurement": "% E2 max", "setting": "[2]; [10]", "result": 6, "unit": "%"}, {"measurement": "Estrogen active [yes/no]", "setting": "[2]; pure substance in ER-CALUX", "result": "yes"}, {"measurement": "Estrogen active [yes/no]", "setting": "[2]; pure substance in ER-CALUX, listed as TBC", "result": "low, but significant estrogen activity"}, {"measurement": "EC50", "setting": "[2]; [11]", "result": 50, "unit": "µM"}, {"measurement": "cell viability", "setting": "[3]", "result": "decrease in cell viability"}]}, {"smiles": "C#C[C@]1(O)CC[C@H]2[C@@H]3CCc4cc(O)ccc4[C@H]3CC[C@@]21C", "note": "[17α-ethinyl estradiol, reference compound]", "values": [{"measurement": "in vitro estrogen activity compared with 17β-estradiol", "setting": "[1]", "result": "approximatively the same in vitro estrogen activity as the natural sex hormone 17β-estradiol"}, {"measurement": "fold lower ADI than 17β-estradiol", "setting": "[4]", "result": "approximately 400 fold"}, {"measurement": "acceptable daily intake (ADI)", "setting": "[5]; adult person (60 kg), based on working place thresholds ref 40", "result": 7, "unit": "ng"}]}, {"smiles": "CCCCCCCC/C=C\\CCCCCCCCCCCC(N)=O", "note": "[13-Docosenamide (Z)]", "values": [{"measurement": "endocrine activity in the in vitro tests used in this study", "setting": "[2]; pure substance", "result": "not endocrine active"}, {"measurement": "Estrogen active [yes/no]", "setting": "[2]; pure substance in ER-CALUX", "result": "no"}, {"measurement": "EC50", "setting": "[2]; [11]", "result": "> 500", "unit": "µM"}]}, {"smiles": "CC(C)C(=O)OCC(C)(C)C(OC(=O)C(C)C)C(C)C", "note": "(centres unmarked) [2,2,4-Trimethyl-1,3-pentanediol diisobutyrate]", "values": [{"measurement": "EC50", "setting": "[2]", "result": "> 500", "unit": "µM"}, {"measurement": "Estrogen active [yes/no]", "setting": "[2]; pure substance in ER-CALUX", "result": "no"}, {"measurement": "Estrogen active [yes/no]", "setting": "[2]; pure substance in ER-CALUX, listed as TXIB", "result": "negative"}]}, {"smiles": "CC(C)CCCCCCOC(=O)C1CCCCC1C(=O)OCCCCCCC(C)C", "note": "(centres unmarked) [Diisononyl cyclohexane-1,2-dicarboxylate]", "values": [{"measurement": "lowest reference value published", "setting": "[5]", "result": 0.7, "unit": "mg/kg bw/day"}, {"measurement": "Estrogen active [yes/no]", "setting": "[2]; pure substance in ER-CALUX", "result": "no"}, {"measurement": "Estrogen active [yes/no]", "setting": "[2]; pure substance in ER-CALUX, listed as DINCH", "result": "negative"}, {"measurement": "EC50", "setting": "[2]; [11]", "result": "> 500", "unit": "µM"}]}, {"smiles": "O=C(c1ccccc1)c1ccccc1", "note": "[Benzophenone]", "values": [{"measurement": "tolerable daily intake (TDI)", "setting": "[5]; recommended by the European Food Safety Agency ref 43", "result": 30, "unit": "μg/kg body weight per day"}]}, {"smiles": "CC(C)(c1ccc(O)cc1)c1ccc(O)cc1", "note": "[Bisphenol A (BPA), Bisphenol A]", "values": [{"measurement": "temporary tolerable daily intake (TDI)", "setting": "[5]; recommended by EFSA, taking into account endocrine effects ref 43", "result": 4, "unit": "μg/kg body weight per day"}, {"measurement": "% E2 max", "setting": "[2]; [7]", "result": 151, "unit": "%"}, {"measurement": "% E2 max", "setting": "[2]; [10]", "result": 154, "unit": "%"}, {"measurement": "% E2 max", "setting": "[2]; 5,00E-07 mol/l in bioassay medium", "result": 116, "unit": "%"}, {"measurement": "% E2 max", "setting": "[2]; 5,00E-08 mol/l in bioassay medium", "result": 11, "unit": "%"}, {"measurement": "% E2 max", "setting": "[2]; 5,00E-09 mol/l in bioassay medium", "result": 5, "unit": "%"}, {"measurement": "factor less estrogen active than the natural estrogen 17β-estradiol", "setting": "[2]; based on response curves in ER-CALUX (Fig 2)", "result": "~30.000"}]}, {"smiles": "CCOC(=O)c1ccccc1C(=O)OCC", "note": "[Diethyl phthalate (DEP), Diethyl phthalate]", "values": [{"measurement": "% E2 max", "setting": "[2]; [6]", "result": 47, "unit": "%"}, {"measurement": "% E2 max", "setting": "[2]; [7]", "result": 9, "unit": "%"}, {"measurement": "% E2 max", "setting": "[2]; [8]", "result": 69, "unit": "%"}, {"measurement": "% E2 max", "setting": "[2]; [9]", "result": 23, "unit": "%"}, {"measurement": "% E2 max", "setting": "[2]; [10]", "result": 10, "unit": "%"}, {"measurement": "Estrogen active [yes/no]", "setting": "[2]; pure substance in ER-CALUX", "result": "yes"}, {"measurement": "EC50", "setting": "[2]; [11]", "result": 200, "unit": "µM"}]}]}
